Data on 37 compounds can be found in US20230365493A1, “COMPOUNDS AND METHODS” (DEMAGTECH PTY LTD, priority 2020, published 2023).

In one assay the test system is Arabidopsis thaliana. As to the kind of experiment: Activity of 2,4-DB esters compared with 2,4-DB. It is filed as in vivo. To be noted: 31.25 μM to 2000 μM; imaged day 12. How it is done: Once the Arabidopsis thaliana seeds had germinated, this was Day 0 and an image taken (Treatment—Day 0) to show plants were all at the same stage. Plants were treated either with 2,4-DB or 2-(dimethylamino)ethyl 4-(2,4-dichlorophenoxy)butanoate at concentrations ranging from 31.25 μM to 2000 μM as marked and imaged 12 days later (Treatment—Day 12).
Once the Arabidopsis thaliana seeds had germinated, this was Day 0 and an image taken (Treatment—Day 0) to show plants were all at the same stage. Plants were treated either with 2,4-DB or 2-(dimethylamino)ethyl 4-(2,4-dichlorophenoxy)butanoate hydrochloride at concentrations ranging from 31.25 μM to 2000 μM as marked and imaged 12 days later (Treatment—Day 12).

The test system of another assay is A. thaliana. As to the kind of experiment: Herbicidal activity assay, post-emergence, pots. Type of assay: in vivo, Arabidopsis thaliana Col-0. To be noted: A. thaliana Col-0, post-emergence treatments at three and six days after germination, grown 16 days after treatment; for minimal effective concentration: Arabidopsis thaliana, 384 h. How it is done:
(§1) A range of compounds of the invention were assessed for herbicidal activity against A. thaliana. A. thaliana Col-0 seeds (˜30) were sown in 63×63×59 mm pots consisting of Irish peat that was pre-wet prior to sowing. Seeds were cold-treated for 3 days in the dark at 4° C. to synchronise germination and then grown in a chamber at 22° C., with 60% relative humidity and in a 16 h light/8 h dark photoperiod. Compounds of the invention were initially dissolved in dimethyl sulfoxide (DMSO) at 20 mg/mL and further diluted in water prior to treatments. The surfactant Brushwet (SST Australia) was added to a final concentration of 0.02%. The carrier DMSO was used as a negative control. Seeds or seedlings were treated with solutions of compound that contained 2% of DMSO, using a pipette. Post-emergence treatments were done at three and six days after germination. Seedlings were grown for 16 days after treatment before photos were taken.
The results of this study are represented in the following table, where compounds of the invention are represented by number, and herbicidal activity is represented using the following: ≤125 μM=+++, ≤500 μM=++, ≤2000 μM=+
as §1, with “A.” for “A range of compounds of the invention were assessed for herbicidal activity against A. thaliana. A.”, “Compounds” for “Compounds of the invention”

Where a name gives a salt, the structure may show the parent alone.

Turning to `CN(C)CCOC(=O)CCCOc1ccc(Cl)cc1Cl.Cl` [2-(dimethylamino)ethyl 4-(2,4-dichlorophenoxy)butanoate hydrochloride], the “activity against Arabidopsis thaliana on an equimolar basis, FIGS. 19 and 20” value (“activity against Arabidopsis thaliana” for short) with Arabidopsis thaliana is listed as “comparable activity”. For `CNCCOC(=O)c1c(Cl)ccc(Cl)c1OC` [Compound 20, 2-(methylamino)ethyl 3,6-dichloro-2-methoxybenzoate], the minimal effective concentration with A. thaliana is ≤ 500 µM. The same measure, in the same setting: then `COc1c(Cl)ccc(Cl)c1C(=O)OCCCCCCN(C)C` [Compound 14, 6-(dimethylamino)hexyl 3,6-dichloro-2-methoxybenzoate], with ≤ 125 µM.

With `COc1c(Cl)ccc(Cl)c1C(=O)OCCCCCCCCN(C)C` [Compound 15, 8-(dimethylamino)octyl 3,6-dichloro-2-methoxybenzoate], the minimal effective concentration in the assay on A. thaliana was ≤ 500 µM. On to `CN(C)CCOC(=O)CCCOc1ccc(Cl)cc1Cl` [2-(dimethylamino)ethyl 4-(2,4-dichlorophenoxy)butanoate], for which the “activity against Arabidopsis thaliana” value with Arabidopsis thaliana is reported as “comparable activity”. For the compound `COc1c(Cl)ccc(Cl)c1C(=O)OCC1CCCN1C` (stereo not shown) [Compound 10, (1-methylpyrrolidin-2-yl)methyl 3,6-dichloro-2-methoxybenzoate], the minimal effective concentration in the assay with A. thaliana was ≤ 500 µM.

Regarding `O=C(O)CC(O)(CC(=O)O)C(=O)O` [1. citrate], in the assay on A. thaliana, the minimal effective concentration was ≤ 125 µM. The same measure, in the same setting: with `COc1c(Cl)ccc(Cl)c1C(=O)OCCN(C)CCO` [Compound 17, 2-((2-hydroxyethyl)(methyl)amino)ethyl 3,6-dichloro-2-methoxybenzoate] the figure was ≤ 2000 µM. For `COc1c(Cl)ccc(Cl)c1C(=O)OCCN1CCOCC1` [Compound 7, 2-(morpholin-4-yl)ethyl 3,6-dichloro-2-methoxybenzoate], the minimal effective concentration with A. thaliana was ≤ 125 µM.

As for `COc1c(Cl)ccc(Cl)c1C(=O)OCCN` [Compound 19, 2-aminoethyl 3,6-dichloro-2-methoxybenzoate], in the assay with A. thaliana, the minimal effective concentration is ≤ 500 µM. On the same count and under the same terms, then `COc1c(Cl)ccc(Cl)c1C(=O)OCCCN(C)C` [Compound 12, 3-(dimethylamino)propyl 3,6-dichloro-2-methoxybenzoate], with ≤ 2000 µM; and `CCN(CC)CCSC(=O)c1c(Cl)ccc(Cl)c1OC` [Compound 28, S-(2-(diethylamino)ethyl) 3,6-dichloro-2-methoxybenzene-1-carbothioate], with ≤ 125 µM; and `COc1c(Cl)ccc(Cl)c1C(=O)OC(C)CN` (stereo not shown) [Compound 22, 1-aminopropan-2-yl 3,6-dichloro-2-methoxybenzoate], with ≤ 2000 µM. As for `COc1c(Cl)ccc(Cl)c1C(=O)OCCCN` [Compound 23, 3-aminopropyl 3,6-dichloro-2-methoxybenzoate], the minimal effective concentration in the assay with A. thaliana was ≤ 125 µM. Same read-out and setting: then `COc1c(Cl)ccc(Cl)c1C(=O)OC(CN(C)C)CN(C)C` [Compound 26, 1,3-bis(dimethylamino)propan-2-yl 3,6-dichloro-2-methoxybenzoate], with ≤ 125 µM; and `COc1c(Cl)ccc(Cl)c1C(=O)OC1CCN(C)CC1` [Compound 9, 1-methylpiperidin-4-yl 3,6-dichloro-2-methoxybenzoate], with ≤ 2000 µM. The compound `CN(C)CCOC(=O)c1nc(Cl)ccc1Cl` [3,6-dichloropyridine-2-carboxylic acid 2-(dimethylamino)ethyl ester] displayed an Active at with A. thaliana of 125 µM.

In turn, `CN(C)CCOC(=O)c1c(Cl)ccc2cc(Cl)cnc12` [3,7-dichloroquinoline-8-carboxylic acid 2-(dimethylamino)ethyl ester] gave an Active at with A. thaliana of 2000 µM.

Turning to `CN(C)CCOC(=O)c1c(Cl)ccc2cc(Cl)cnc12.Cl` [3,7-dichloroquinoline-8-carboxylic acid 2-(dimethylamino)ethyl ester hydrochloride], in the assay with A. thaliana, the Active at was 2000 µM.

With `CCN(CC)CCOC(=O)c1c(Cl)ccc(Cl)c1OC` [Compound 2, 2-(diethylamino)ethyl 3,6-dichloro-2-methoxybenzoate], in the assay on A. thaliana, the minimal effective concentration was ≤ 125 µM. In the assay on A. thaliana, `CC(C)C1(C)N=C(c2ncccc2C(=O)OCCN(C)C)NC1=O.Cl` (stereo not shown) [2-(Dimethylamino)ethyl 2-[4,5-dihydro-4-methyl-4-(1-methylethyl)-5-oxo-1H-imidazol-2-yl]-3-pyridinecarboxylate hydrochloride] had an Active at of 500 µM. Regarding `CCN(CCOC(=O)c1c(Cl)ccc(Cl)c1OC)c1ccccc1` [Compound 24, 2-(ethyl(phenyl)amino)ethyl 3,6-dichloro-2-methoxybenzoate], in the assay with A. thaliana, the minimal effective concentration was ≤ 500 µM. The same measure, in the same setting: then `COc1c(Cl)ccc(Cl)c1C(=O)OCCN(Cc1ccccc1)Cc1ccccc1` [Compound 25, 2-(dibenzylamino)ethyl 3,6-dichloro-2-methoxybenzoate], with ≤ 2000 µM; and `COc1c(Cl)ccc(Cl)c1C(=O)SCCN(C)C` [Compound 27, S-(2-(dimethylamino)ethyl) 3,6-dichloro-2-methoxybenzene-1-carbothioate], with ≤ 125 µM; and `COc1c(Cl)ccc(Cl)c1C(=O)OCCN(C)C` [Compound 1, 2-(dimethylamino)ethyl 3,6-dichloro-2-methoxybenzoate], with ≤ 500 µM. As for `COc1c(Cl)ccc(Cl)c1C(=O)OCCN1CCN(C)CC1` [Compound 8, 2-(4-methylpiperazin-1-yl)ethyl 3,6-dichloro-2-methoxybenzoate], in the assay with A. thaliana, the minimal effective concentration was ≤ 2000 µM. Take `COc1c(Cl)ccc(Cl)c1C(=O)OCCc1ccccn1` [Compound 11, 2-(pyridin-2-yl)ethyl 3,6-dichloro-2-methoxybenzoate]: the minimal effective concentration with A. thaliana is ≤ 125 µM.

`COc1c(Cl)ccc(Cl)c1C(=O)OCCN(C(C)C)C(C)C` [Compound 3, 2-(dipropan-2-ylamino)ethyl 3,6-dichloro-2-methoxybenzoate]: the minimal effective concentration in the assay with A. thaliana was ≤ 500 µM. Take `CN(C)CCOC(=O)c1nc(Cl)ccc1Cl.Cl` [3,6-dichloropyridine-2-carboxylic acid 2-(dimethylamino)ethyl ester hydrochloride]: in the assay on A. thaliana, the Active at is 125 µM. Take `CCCCN(CCCC)CCOC(=O)c1c(Cl)ccc(Cl)c1OC` [Compound 4, 2-(dibutylamino)ethyl 3,6-dichloro-2-methoxybenzoate]: in the assay on A. thaliana, the minimal effective concentration was ≤ 125 µM. The same measure, in the same setting: then `COc1c(Cl)ccc(Cl)c1C(=O)OCCN1CCCC1` [Compound 5, 2-(pyrrolidin-1-yl)ethyl 3,6-dichloro-2-methoxybenzoate], with ≤ 500 µM; and `COc1c(Cl)ccc(Cl)c1C(=O)OCCN(C)CCOC(=O)c1c(Cl)ccc(Cl)c1OC` [Compound 18, (Methylazanediyl)bis(ethane-2,1-diyl) bis(3,6-dichloro-2-methoxybenzoate)], with ≤ 125 µM; and `COc1c(Cl)ccc(Cl)c1C(=O)OCCOCCN(C)C` [Compound 16, 2-(2-(dimethylamino)ethoxy)ethyl 3,6-dichloro-2-methoxybenzoate], with ≤ 500 µM. `O=C(O)CCCOc1ccc(Cl)cc1Cl` [2,4-DB, 4-(2,4-dichlorophenoxy)butanoic acid, reference compound]: the “activity against Arabidopsis thaliana” value in the assay on Arabidopsis thaliana is on record as “comparable activity”.

For the compound `COc1c(Cl)ccc(Cl)c1C(=O)OCC(C)(C)N` [Compound 21, 2-amino-2-methylpropyl 3,6-dichloro-2-methoxybenzoate], the minimal effective concentration in the assay with A. thaliana was ≤ 500 µM.

In turn, `CC(=NNC(=O)Nc1cccc(F)c1)c1ncccc1C(=O)OCCN(C)C.Cl` [2-(Dimethylamino)ethyl 2-[1-[2-[[(3-fluorophenyl)amino]carbonyl]hydrazinylidene]ethyl]-3-pyridinecarboxylate hydrochloride] registered an Active at in the assay with A. thaliana of 125 µM. Take `COc1c(Cl)ccc(Cl)c1C(=O)OCCN1CCCCC1` [Compound 6, 2-(piperidin-1-yl)ethyl 3,6-dichloro-2-methoxybenzoate]: the minimal effective concentration in the assay with A. thaliana is ≤ 2000 µM.
